Data published in paper PMC2691833 (Nucleic Acids Research, 2009).

Molecular target: T1, EcoR124I holoenzyme (Escherichia coli, UniProt P10486)
T1 sequence (P10486 1-1038): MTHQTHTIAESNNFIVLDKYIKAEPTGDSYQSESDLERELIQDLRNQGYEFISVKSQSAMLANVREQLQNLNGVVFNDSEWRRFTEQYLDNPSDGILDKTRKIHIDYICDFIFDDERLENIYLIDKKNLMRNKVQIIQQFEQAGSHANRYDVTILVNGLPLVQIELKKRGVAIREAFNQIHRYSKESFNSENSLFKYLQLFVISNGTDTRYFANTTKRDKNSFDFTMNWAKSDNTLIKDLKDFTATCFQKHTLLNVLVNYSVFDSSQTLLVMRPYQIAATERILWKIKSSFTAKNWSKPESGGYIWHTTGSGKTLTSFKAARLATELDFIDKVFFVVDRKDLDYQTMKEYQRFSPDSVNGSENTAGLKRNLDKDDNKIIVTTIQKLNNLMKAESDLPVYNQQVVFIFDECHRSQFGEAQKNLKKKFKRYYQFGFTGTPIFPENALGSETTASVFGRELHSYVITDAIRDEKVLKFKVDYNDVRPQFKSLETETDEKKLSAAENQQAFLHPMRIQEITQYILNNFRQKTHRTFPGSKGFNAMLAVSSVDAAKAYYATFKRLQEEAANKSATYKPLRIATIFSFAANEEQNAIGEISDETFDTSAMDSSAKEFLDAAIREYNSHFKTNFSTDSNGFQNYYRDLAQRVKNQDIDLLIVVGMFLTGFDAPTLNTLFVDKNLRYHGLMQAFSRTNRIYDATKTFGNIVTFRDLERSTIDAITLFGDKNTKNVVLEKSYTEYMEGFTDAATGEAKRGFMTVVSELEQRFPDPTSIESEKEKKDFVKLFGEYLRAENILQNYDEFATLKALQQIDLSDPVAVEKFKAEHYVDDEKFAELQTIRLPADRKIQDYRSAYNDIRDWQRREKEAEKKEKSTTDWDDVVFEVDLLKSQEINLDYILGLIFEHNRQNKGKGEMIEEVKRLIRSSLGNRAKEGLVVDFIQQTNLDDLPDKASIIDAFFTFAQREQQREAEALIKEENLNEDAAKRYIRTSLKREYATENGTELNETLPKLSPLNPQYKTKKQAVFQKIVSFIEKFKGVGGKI
T1 sequence (P10484 1-520 partner): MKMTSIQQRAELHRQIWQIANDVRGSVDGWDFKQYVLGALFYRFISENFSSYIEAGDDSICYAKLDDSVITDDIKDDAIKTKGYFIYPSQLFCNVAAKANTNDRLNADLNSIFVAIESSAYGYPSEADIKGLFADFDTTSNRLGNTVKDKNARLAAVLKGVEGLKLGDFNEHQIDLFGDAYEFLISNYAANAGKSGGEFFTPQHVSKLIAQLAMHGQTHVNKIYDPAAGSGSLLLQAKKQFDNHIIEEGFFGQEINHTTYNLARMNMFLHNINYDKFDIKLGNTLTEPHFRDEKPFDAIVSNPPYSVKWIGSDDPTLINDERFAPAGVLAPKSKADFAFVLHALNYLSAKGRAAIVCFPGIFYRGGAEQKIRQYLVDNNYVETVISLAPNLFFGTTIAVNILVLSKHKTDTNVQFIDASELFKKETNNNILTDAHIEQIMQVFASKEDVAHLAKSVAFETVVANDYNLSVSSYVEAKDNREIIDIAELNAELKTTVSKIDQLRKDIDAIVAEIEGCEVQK
T1 sequence (P10485 1-404 partner): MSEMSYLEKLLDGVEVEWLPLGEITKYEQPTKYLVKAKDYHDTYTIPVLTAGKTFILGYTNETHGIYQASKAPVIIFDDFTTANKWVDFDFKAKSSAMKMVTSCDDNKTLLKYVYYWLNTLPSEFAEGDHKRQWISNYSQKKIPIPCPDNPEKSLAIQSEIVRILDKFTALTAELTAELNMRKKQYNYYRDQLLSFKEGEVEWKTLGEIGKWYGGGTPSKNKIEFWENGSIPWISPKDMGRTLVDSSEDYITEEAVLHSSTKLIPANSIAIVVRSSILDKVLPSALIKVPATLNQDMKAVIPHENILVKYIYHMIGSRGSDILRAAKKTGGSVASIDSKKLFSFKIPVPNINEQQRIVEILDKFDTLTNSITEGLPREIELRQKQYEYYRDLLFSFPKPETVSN
Conditions: 1 mM ATP, 5 mM Mg(OAc)2, negatively supercoiled R+- or 2R+-DNA, pH 7.5, 25 °C

Nc1ncnc2c1ncn2[C@@H]1O[C@H](COP(=O)(O)OP(=O)(O)OP(=O)(O)O)[C@@H](O)[C@H]1O [ATP]
continuous coupled spectrophotometric ATPase assay: as total protein concentration increases, the initial rates of ATP hydrolysis increase accordingly
